The values that follow come from patent US4035566A, “N-trifluoroacetyladriamycin-14-alkanoates and therapeutic compositions containing same” (Sidney Farber Cancer Institute, Inc., priority 1975, dated 1977).

For data set [1], the system named is murine P 388 leukemia. Put plainly: in vivo antitumor activity against murine P 388 leukemia (Geran et al. procedure). To be noted: Table II, i.p., qd 1-4; for Survivors 60da: optimal dose mg/kg: acetate 40, isobutyrate 40, valerate 40, caproate 60, caprylate 60; for MILS (Median Increase in Life Span Compared with Untreated Mice) / Survivors 30da: optimal dose mg/kg: adriamycin 4.0, daunomycin 2.0, acetate 40, isobutyrate 40, valerate 40, caproate 60, caprylate 60. More on the design: species or system BDF1 male mice. As for the experimental part:
(§1) The toxicity and therapeutic effectiveness of the new compounds and active agents of the present invention are shown by in vitro assays and by in vivo evaluations in mice. The in vitro assays measure the growth inhibiting activity of the materials against the CCRF-CEM cell line in culture. The cell line was derived from the peripheral blood and a child with lymphoblastic leukemia as described by Foley et al., Cancer, Volume 18, page 522 et seq. (1965), and the assays were carried out by the procedure of Foley and Lazarus, Biochem. Pharmacol., Volume 16, pages 659 et seq. (1967), the results being reported in terms of the dose in micromoles per liter required to inhibit growth of the cultures by 50% relative to control cultures to which no drug had been added (ID50). The in vivo evaluations were made by preparing a 0.2 to 0.7% by weight solution of the active agent in a 10% by volume aqueous solution of polyoxyethylene sorbitan monooleate (polysorbate 80) as a carrier and injecting the dosage intraperitoneally. The evaluations were made of the antitumor activity against the murine P 388 and murine L 1210 leukemias in BDF1 male mice according to standard National Cancer Institute protocols as set forth by Geran et al., Cancer Chemotherap. Rep., Part 3, Volume 3, pages 1 et seq. (1972), except that a qd 1-4 schedule was used in place of qd 1-9 in order to conserve materials. Evaluations were also made of the antitumor activity against the Ridgway osteogenic sarcoma, a solid tumor, in AKD2 /F1 mice, according to the procedures described in the report by G. J. D'Angio, C. L. Maddock, S. Farber, and B. L. Brown, Cancer Research, 25, 1002-1007 (1965).
(§2) Optimal dosage was determined by testing doses which were at several multiples of 10 milligrams/kilogram of body weight and the optimal dose was used for further tests. Some effectiveness can be observed at dosages ranging from 20 to 70 milligrams/kilogram of body weight, depending upon the particular ester employed.
The following table summarizes the in vivo antitumor activity against murine P 388 leukemia tested by the Geran et al. procedure as exampled above: […]

For data set [2], the system named is CCRF-CEM cell line. As to the kind of experiment: in vitro growth inhibition of CCRF-CEM cell line in culture (Foley and Lazarus procedure). In kind it is cell-based, child. To be noted: Homo sapiens, read-out: ID50 (dose required to inhibit growth of the cultures by 50% relative to control cultures). As for the experimental part:
as §1
The following table summarizes the inhibitory activity of various N-trifluoroacetyladriamycin-14-alkanoates as well as other materials when tested in vitro as described in the paragraphs preceding Example 1 above.

Data set [3] has as its system mice. Put plainly: toxicity in mice in the in vivo antitumor tests. To be noted: P 388 test conditions, qd 1-4; for toxicity: dose of 60 mg/kg i.p. As for the experimental part: as §1, §2
Data set [4] concerns murine Ridgway osteogenic sarcoma. Put plainly: in vivo antitumor activity against murine Ridgway osteogenic sarcoma (D'Angio et al. procedure). More on the design: species or system AKD2 /F1 mice. To be noted: for MILS / Median Survival: Table IV, days 16-19. As for the experimental part:
as §1
The following table summarizes the in vivo antitumor activity of N-trifluoroacetyladriamycin-14-valerate against the murine Ridgway osteogenic sarcoma following the D'Angio et at. procedure as described above:
*Therapy was started on day 16 when the intramuscularly implanted tumor was palpable. Seven mice were used in each group, and all compounds were administered intraperitoneally.
Complete remission in this system is defined as the absence of palpable tumor.

Data set [5] deals with murine L 1210 leukemia. As to the kind of experiment: in vivo antitumor activity against murine L 1210 leukemia (Geran et al. procedure). To be noted: for MILS / Survivors 30da / Survivors 60da: Table III, qd 1-4. Also noted: species or system BDF1 male mice. As for the experimental part: as §1, §2
The murine L 1210 leukemia is generally poorly responsive to chemotherapy. […] The following table summarizes the results of three separate in vivo tests of N-trifluoroacetyladriamycin-14-valerate against murine L 1210 leukemia following the Geran et al. procedure as described above: […]

Data set [6] has as its system murine L 1210 leukemia. To be noted: background statement; cited from earlier work.
The test system of data set [7] is malignant tumors. To be noted: cited from earlier work; for clinical effectiveness: certain malignant tumors, e.g. induction of remission in acute leukemia.
The nature of data set [8]: toxicity in mice in the in vivo antitumor tests. To be noted: mouse, in vivo, ip; L1210 test, qd 1-4 schedule; read-out: doses above which toxicity displayed. As for the experimental part: as §1, §2
Setting [9] is: Ridgway tumor, complete remission = absence of palpable tumor.
The mark [10] stands for this setting: L1210 leukemia, same conditions as Table III.

Read-outs that look alike come from different tables or passages of the source. Where only a bound is given, the exact number is not on record here.

Regarding `COc1cccc2c1C(=O)c1c(O)c3c(c(O)c1C2=O)C[C@@](O)(C(=O)COC(=O)C(C)C)C[C@@H]3O[C@H]1C[C@H](NC(=O)C(F)(F)F)[C@H](O)[C@H](C)O1` [Isobutyrate, N-Trifluoroacetyladriamycin-14-isobutyrate], in data set [1], the “Survivors 60da” value is 1/5, the “MILS (Median Increase in Life Span Compared with Untreated Mice)” value is given as 150% and the “Survivors 30da” value is given as 3/5. The IC50 in data set [2] (CCRF-CEM cells, Table I) was determined as 280 nM.
Regarding `CCCCCCCC(=O)OCC(=O)[C@]1(O)Cc2c(O)c3c(c(O)c2[C@@H](O[C@H]2C[C@H](NC(=O)C(F)(F)F)[C@H](O)[C@H](C)O2)C1)C(=O)c1c(OC)cccc1C3=O` [Caprylate, N-Trifluoroacetyladriamycin-14-caprylate], in data set [1], the “Survivors 60da” value is on record as 1/5, the “MILS (Median Increase in Life Span Compared with Untreated Mice)” value is listed as 243% and the “Survivors 30da” value is given as 5/5. Also, the toxicity entry in data set [3] was “no toxicity was observed”. In addition, the IC50 in data set [2] (CCRF-CEM cells, Table I) was found to be 360 nM.
`COc1cccc2c1C(=O)c1c(O)c3c(c(O)c1C2=O)C[C@@](O)(C(=O)COC(C)=O)C[C@@H]3O[C@H]1C[C@H](NC(=O)C(F)(F)F)[C@H](O)[C@H](C)O1` [Acetate, N-trifluoroacetyladriamycin-14-acetate]: in data set [1], the “Survivors 60da” value is reported as 0/5, the “MILS (Median Increase in Life Span Compared with Untreated Mice)” value is recorded as 173% and the “Survivors 30da” value is given as 2/5. Further, the IC50 in data set [2] (CCRF-CEM cells, Table I) is 200 nM.
Regarding `CCCCCCCCCC(=O)OCC(=O)[C@]1(O)Cc2c(O)c3c(c(O)c2[C@@H](O[C@H]2C[C@H](NC(=O)C(F)(F)F)[C@H](O)[C@H](C)O2)C1)C(=O)c1c(OC)cccc1C3=O` [Caprate, N-Trifluoroacetyladriamycin-14-caprate], the IC50 in data set [2] (CCRF-CEM cells, Table I) was 390 nM.
Take `CCCCCC(=O)OCC(=O)[C@]1(O)Cc2c(O)c3c(c(O)c2[C@@H](O[C@H]2C[C@H](NC(=O)C(F)(F)F)[C@H](O)[C@H](C)O2)C1)C(=O)c1c(OC)cccc1C3=O` [Caproate, N-Trifluoroacetyladriamycin-14-caproate]: in data set [1], the “Survivors 60da” value was 1/5, the “MILS (Median Increase in Life Span Compared with Untreated Mice)” value was 271% and the “Survivors 30da” value was 5/5. Besides, the toxicity entry in data set [3] is on record as “no toxicity was observed”. Besides, the IC50 in data set [2] (CCRF-CEM cells, Table I) came to 330 nM.
Take `COc1cccc2c1C(=O)c1c(O)c3c(c(O)c1C2=O)C[C@@](O)(C(=O)COC(=O)C(C)(C)C)C[C@@H]3O[C@H]1C[C@H](NC(=O)C(F)(F)F)[C@H](O)[C@H](C)O1` [Pivalate, N-Trifluoroacetyladriamycin-14-pivalate]: the IC50 in data set [2] (CCRF-CEM cells, Table I) came out at 590 nM.
Turning to `CCC(=O)OCC(=O)[C@]1(O)Cc2c(O)c3c(c(O)c2[C@@H](O[C@H]2C[C@H](NC(=O)C(F)(F)F)[C@H](O)[C@H](C)O2)C1)C(=O)c1c(OC)cccc1C3=O` [Propionate, N-Trifluoroacetyladriamycin-14-propionate], the IC50 in data set [2] (CCRF-CEM cells, Table I) was 300 nM.
Consider `CCCCC(=O)OCC(=O)[C@]1(O)Cc2c(O)c3c(c(O)c2[C@@H](O[C@H]2C[C@H](NC(=O)C(F)(F)F)[C@H](O)[C@H](C)O2)C1)C(=O)c1c(OC)cccc1C3=O` [N-Trifluoroacetyladriamycin-14-valerate], for which the “Survivors 60da” value in data set [1] is given as 3/5; in data set [5] (first test, 60.0 mg/kg i.p.) it was 4/5; in data set [5] (first test, 70.0 mg/kg i.p.), 4/5; in data set [5] (second test, 50.0 mg/kg i.p.), 4/7; in data set [5] (second test, 60.0 mg/kg i.p.) it was 3/6; in data set [5] (third test, 50.0 mg/kg i.p.), 5/7. Also, the “Survivors 60da” value in data set [5] (third test, 60.0 mg/kg i.p.) is given as 6/7. Further, the “MILS (Median Increase in Life Span Compared with Untreated Mice)” value in data set [1] worked out at 429%. For the same compound, the “Survivors 30da” value in data set [1] is 4/5; in data set [5] (first test, 60.0 mg/kg i.p.) it was 4/5; in data set [5] (first test, 70.0 mg/kg i.p.) it was 4/5; in data set [5] (second test, 50.0 mg/kg i.p.), 4/7; in data set [5] (second test, 60.0 mg/kg i.p.) it was 3/6; in data set [5] (third test, 50.0 mg/kg i.p.), 5/7. In addition, the “Survivors 30da” value in data set [5] (third test, 60.0 mg/kg i.p.) is reported as 6/7. Also, the “gross number of complete remissions compared with adriamycin” value in data set [4] (setting [9]) was “the gross number of complete remissions was greater”. Also, the “median duration of complete remission compared with adriamycin” value in data set [4] (setting [9]) is given as “the median duration of complete remission was longer”. Further, the MILS in data set [4] (50.0 mg/kg i.p.) was 130%; in data set [4] (60.0 mg/kg i.p.) it was 122%; in data set [5] (first test, 60.0 mg/kg i.p.), above 445%; in data set [5] (first test, 70.0 mg/kg i.p.), above 445%; in data set [5] (second test, 50.0 mg/kg i.p.) it was above 445%; in data set [5] (second test, 60.0 mg/kg i.p.), above 445%. Further, the MILS in data set [5] (third test, 50.0 mg/kg i.p.) is given as above 400%; in data set [5] (third test, 60.0 mg/kg i.p.) it was above 400%. For the same compound, the “Median Survival” value in data set [4] (50.0 mg/kg i.p.) stood at 84.0 days; in data set [4] (60.0 mg/kg i.p.) it was 81.0 days. The IC50 in data set [2] (CCRF-CEM cells, Table I) was 240 nM.
As for `COc1cccc2c1C(=O)c1c(O)c3c(c(O)c1C2=O)C[C@@](O)(C(C)=O)C[C@@H]3O[C@H]1C[C@H](N)[C@H](O)[C@H](C)O1` [Daunomycin, reference compound], the “effectiveness in prolonging survival of mice bearing L 1210 leukemia (general statement)” value in data set [6] is recorded as “much less so”. Further, in data set [1], the “MILS (Median Increase in Life Span Compared with Untreated Mice)” value turned out to be 91% and the “Survivors 30da” value was 0/6. For the same compound, in data set [7], the clinical effectiveness entry is “effective clinically against certain malignant tumors”. The toxicities in chemotherapy result in data set [7] (in vivo) is “a variety of toxicities which limit the effectiveness of the compounds”. Besides, the IC50 in data set [2] (CCRF-CEM) came out at 35 nM.
Consider `COc1cccc2c1C(=O)c1c(O)c3c(c(O)c1C2=O)C[C@@](O)(C(=O)CO)C[C@@H]3O[C@H]1C[C@H](N)[C@H](O)[C@H](C)O1` [Adriamycin], for which, in data set [6], the “effectiveness in prolonging survival of mice bearing L 1210 leukemia (general statement)” value was “only moderately effective”. Moreover, in data set [1], the “MILS (Median Increase in Life Span Compared with Untreated Mice)” value is 132% and the “Survivors 30da” value is 0/6. Besides, in data set [4] (3.0 mg/kg i.p.), the MILS is on record as 40% and the “Median Survival” value is given as 51.0 days. In addition, in data set [7], the clinical effectiveness entry is listed as “effective clinically against certain malignant tumors”. For the same compound, the toxicities in chemotherapy result in data set [7] (limiting long-term use) is “a variety of toxicities which limit the effectiveness of the compounds”. Moreover, the “clinical efficacy against certain solid tumors” value in data set [7] (solid tumors) was “has shown clinical efficacy against certain solid tumors”. For the same compound, the “dose at and above which toxic” value in data set [3] (i.p.) is on record as at least 4 mg/kg. Further, in data set [2] (CCRF-CEM), the IC50 turned out to be 66 nM. Further, in data set [5] (first test, 4.0 mg/kg i.p.), the MILS was determined as 45% and the “Survivors 30da” value is listed as 0/5. In data set [5] (second test, 4.0 mg/kg i.p.), the MILS came out at 54%, the “Survivors 30da” value is recorded as 1/5 and the “Survivors 60da” value is 0/5. In addition, in data set [5] (third test, 4.0 mg/kg i.p.), the MILS is reported as 42% and the “Survivors 30da” value is 0/7.
On to `CCCCC(=O)OCC(=O)[C@]1(O)Cc2c(O)c3c(c(O)c2[C@@H](O[C@H]2C[C@H](N)[C@H](O)[C@H](C)O2)C1)C(=O)c1c(OC)cccc1C3=O` [adriamycin-14-valerate, reference compound], for which the MTD in data set [8] was above 4 mg/kg. In data set [5] (setting [10]), the “effectiveness in prolonging survival of tumor-bearing mice compared with daunomycin” value is “no more effective than daunomycin” and the “survivors after 30 days” value is reported as “no survivors after 30 days”.
